The text below walks through data of patent US4839387A, “Derivative of thiazolidine-4-carboxylic acid, its preparation and pharmaceutical compositions containing it” (Poli Industria Chimica S.P.A., priority 1987, dated 1989).

SMILES strings stand for the structures. Non-standard residues stand in square brackets, D forms with d. Residues, ends and D or L forms follow the SMILES beside them. pGlu = O=C1CC[C@@H](C(=O)O)N1; Thz = O=C(O)[C@@H]1CSCN1

In this experiment the test system is Male Wistar rats. As to the kind of experiment: Paracetamol intoxication in the rat, test after single i.p. administration. In kind it is in vivo. Particulars: for Death rate % / % distribution of liver impairment degrees: degree 0 / % distribution of liver impairment degrees: degree 1 / % distribution of liver impairment degrees: degree 2 / % distribution of liver impairment degrees: degree 3: single administration; for Death rate %: 48 hours after paracetamol 5000 mg/kg oral; for % distribution of liver impairment degrees: degree 0: degree 0 = normal histologic examination; for % distribution of liver impairment degrees: degree 1: degree I = centrolobular necrosis less than 25% of the lobule; for % distribution of liver impairment degrees: degree 2: degree II = extended centrolobular necrosis; for % distribution of liver impairment degrees: degree 3: degree III = massive necrosis. An excerpt: Male Wistar rats, mean weight of 150±10 g were used, which, after suitable housing, were subjected to the test:
(a) Test after single i.p. administration
The animals were divided in 7 groups, comprising 20 animals each, according to the following scheme:
II group: PGTCA 4.1 μmoles/kg i.p.
III group: PGTCA 41 μmoles/kg i.p.
IV group: PGTCA 205 μmoles/kg i.p.
V group: PGA 4.1 μmoles/kg +TCA 4.1 μmoles/kg
VI group: PGA 41 μmoles/kg +TCA 41 μmoles/kg
VII group: PGA 205 umoles/kg +TCA 205 μmoles/kg.
The animals of each group, fasting since 12 hours, were treated with paracetamol at the dose of 5000 mg/kg by the oral route. The different pharmacological treatments were carried out contemporaneously with the paracetamol administration. After 48 hours from treatment, the death-rate was assessed in the various experimental groups. The liver was taken from the surviving animals, sacrificed by decapitation, and from the dead animals and an histopathologic examination was carried out.
The degree of liver impairment has been evaluated as: degree O: normal histologic examination degree I: centrolobular necrosis extended to less than 25% of the lobule degree II: extended centrolobular necrosis, with lesions bridging adjacent centrolobular areas degree III: massive necrosis.
In order to evaluate the lesion degree, 6 different sections were taken from each organ.

Consider `O=C1CC[C@@H](C(=O)N2CSC[C@H]2C(=O)O)N1` [PGTCA, 3-L-pyroglutamyl-Lthiazolidine-4-carboxylic acid] ([pGlu]-[Thz]-OH), for which the “liver impairment by an high dose of paracetamol” value (acute treatment, 205 μmoles/kg i.p. and 41 μmoles/kg i.p.) was “significant decrease”. Besides, the death-rate by paracetamol entry (at the highest and at the intermediate dose) is recorded as “reduces the death-rate”. Where the note is “PGTCA 4.1 microm/kg ip”, the Death rate % is 85%, the “% distribution of liver impairment degrees: degree 0” value (“% distribution … degree 0” for short) was 0%, the “% distribution of liver impairment degrees: degree 1” value (“% distribution … degree 1” below) amounted to 0% and the “% distribution of liver impairment degrees: degree 2” value (shortened to “% distribution … degree 2”) was 10%. Besides, for the setting “PGTCA 4.1 microm/kg ip”, the “% distribution of liver impairment degrees: degree 3” value (“% distribution … degree 3” for short) amounted to 90%. For the setting “PGTCA 41 microm/kg ip”, the Death rate % is recorded as 75%, the “% distribution … degree 0” value was 0%, the “% distribution … degree 1” value stood at 5% and the “% distribution … degree 2” value stood at 20%. Where the note is “PGTCA 41 microm/kg ip”, the “% distribution … degree 3” value is reported as 75%. Moreover, for the setting “PGTCA 205 microm/kg ip”, the Death rate % was 60%, the “% distribution … degree 0” value came to 5%, the “% distribution … degree 1” value was determined as 15% and the “% distribution … degree 2” value is listed as 15%. The “% distribution … degree 3” value (PGTCA 205 microm/kg ip) is 65%.
